{"source": "patent US20230295134A1", "about": "“USE OF PHENYLQUINOLINONE DERIVATIVE OR FLAVONOID DERIVATIVE FOR TREATING NEUROPATHIC PAIN” (HANGZHOU BIO-SINCERITY PHARMA-TECH CO., LTD., priority 2019, published 2023)", "key": {"PSL model rats": {"system": "PSL model rats", "assay": "Heat pain threshold in partial sciatic nerve ligation (PSL) model", "format": "in vivo, SD rats", "settings": "for heat pain threshold vs Pregabalin group: comparator 30 mg/kg Pregabalin", "protocol": "Male SD rats, weighting 200-250 g, were used to establish partial sciatic nerve ligation (PSL) model. The rats were subjected to ligation of the right sciatic nerve at high-tight level, so that ⅓-½ thickness of the sciatic nerve was trapped in the ligature, and then the wound was closed. The rats in sham group were subjected to the same operative procedure as the PSL model but without nerve ligation. On the sixth day after operation, heat pain threshold was measured in PSL model rats with Plantar Test Apparatus (BME-410) for 2 days to choose rats with stable heat pain threshold, which were randomly divided into 5 groups: 1) model; 2) 30 mg/kg Pregabalin; 3) 3 mg/kg Compound I-6; 4) 1 mg/kg Compound I-6; and 5) 0.3 mg/kg Compound I-6. Group 2-5 were given corresponding medicines orally with the dose of 1 ml/100 g, while the Group model and normal were given saline of the same volume with the same method. Heat pain threshold was measured before administration and 1, 2, 4, 6 h after intragastric administration, and the results were shown in FIG. 1.\nMale SD rats, weighting 200-250g, were used to establish partial sciatic nerve ligation (PSL) model. The rats were subjected to ligation of the right sciatic nerve at high-tight level, so that ⅓-½ thickness of the sciatic nerve was trapped in the ligature, and then the wound was closed. The rats in sham group were subjected to the same operative procedure as the PSL model but without nerve ligation. On the sixth day after operation, heat pain threshold was measured in PSL model rats with Plantar Test Apparatus (BME-410) for 2 days to choose rats with stable heat pain threshold, which were randomly divided into 7 groups: 1) model; 2) 50 mg/kg Gabapentin; 3) 100 mg/kg Carbamazepine; 4) 10 mg/kg Amitriptyline; 5) 1 mg/kg Compound I-4; 6) 1 mg/kg Compound I-6; and 7) 1 mg/kg Compound II-4. Group 2 -7 were given corresponding medicines orally with the dose of 1 ml/100 g, while the Group model and normal were given saline of the same volume with the same method. Heat pain threshold was measured before and 1, 2, 4, 6h after intragastric administration, and the results were shown in FIG. 2."}, "CCI model rats [1]": {"system": "CCI model rats", "assay": "Mechanical withdrawal threshold in chronic constrictive injury (CCI) model, single dose", "format": "in vivo, SD rats", "description": "Male SD rats, weighting 200-250 g, were used to establish chronic constrictive injury (CCI) model. The common sciatic nerve was exposed at the level of the middle of the thigh, and 4 ligatures (4.0 chromic gut, 0.15 mm) were tied loosely with about 1-2 mm spacing to the position proximal to the sciatic's trifurcation. The rats in sham group were subjected to the same operative procedure as the CCI model but without nerve ligation. On the seventh day after operation, mechanical withdrawal threshold was measured in CCI model rats with Electric Von Frey (IITC-2391) for 2 days to choose rats with stable mechanical withdrawal threshold, which were divided into 5 groups: 1) model; 2) 50 mg/kg Gabapentin; 3) 9 mg/kg Compound I-4; 4) 3 mg/kg Compound I-4; and 5) 1 mg/kg Compound I-4. Group 2 -5 were given corresponding medicines orally with the dose of 1 ml/100 g, while the Group model and normal were given saline of the same volume with the same method. Mechanical withdrawal threshold was measured before administration and 1, 2, 4, 6 h after intragastric administration, and the results were shown in FIG. 3."}, "ICR mice": {"system": "ICR mice", "assay": "Security: intragastric administration of different dosages in mice", "format": "in vivo"}, "[2]": {"assay": "Security: intragastric administration of different dosages in mice", "format": "in vivo", "settings": "mouse, in vivo, po; ICR mice; intragastric administration; read-out: half lethal dose (LD50)"}, "[3]": {"assay": "In vivo pharmacokinetic studies (bioavailability)", "settings": "SD rats", "protocol": "The in vivo pharmacokinetic studies of Compound I-6 were conducted in SD rats (n=3)."}, "[4]": {"system": "diabetic neuropathic pain model", "assay": "Heat pain threshold in STZ-induced diabetic neuropathic pain model", "format": "in vivo, SD rats", "settings": "STZ rats; for heat pain threshold of diabetic neuropathic pain model: single dose PO, I-6 1 mg/kg, Gabapentin 50 mg/kg", "protocol": "Male SD rats (200-250 g) with normal blood sugar were fasted but had free access to water for 12 hours. The diabetes model was induced by intraperitoneal injection of 60 mg/kg streptozotocin (STZ), and was examined by 2-hour postprandial sugar level on day 7 after injection, which should be higher than 16 mmol/L. The rats in normal group were given an equal volume of citric acid-sodium citrate buffer (pH 4.2). On day 14 after injection, the heat pain threshold of rats in diabetes model or normal group were measured with Plantar Test Apparatus (BME-410) to examine the success of diabetic neuropathic pain model. The rats in diabetic neuropathic pain model were divided into 3 groups: 1) model; 2) 50 mg/kg Gabapentin; and 3) 1 mg/kg Compound I-6. Group 2 and 3 were given corresponding medicines orally with the dose of 1 ml/100 g, while the Group model and normal were given saline of the same volume with the same method. Heat pain threshold was measured before administration and 1, 2, 4, 6 h after administration, and the results were shown in FIG. 4."}, "CCI model rats [5]": {"system": "CCI model rats", "assay": "Mechanical withdrawal threshold in CCI model, 5 days repeated administration", "format": "in vivo, SD rats", "description": "Male SD rats, weighting 200-250 g, were used to establish CCI model. The common sciatic nerve was exposed at the level of the middle of the thigh, and 4 ligatures (4.0 chromic gut, 0.15 mm) were tied loosely with about 1-2 mm spacing to the position proximal to the sciatic's trifurcation, then the wound was closed. The rats in sham group were subjected to the same operative procedure as the CCI model but without nerve ligation. On the seventh day after operation, mechanical withdrawal threshold was measured in CCI model rats with Electric Von Frey (IITC-2391) for 2 days to choose rats with stable mechanical withdrawal threshold, which were divided into 5 groups: 1) model; 2) 50 mg/kg Gabapentin; 3) 3 mg/kg Compound I-10; 4) 1 mg/kg Compound I-10; and 5) 0.3 mg/kg Compound I-10. Group 2-5 were given corresponding medicines orally with the dose of 1 ml/100 g for 5 days, while the Group model and normal were given saline of the same volume with the same method. Mechanical withdrawal threshold was measured before and 2 h after intragastric administration, and the results were shown in FIG. 6."}, "[6]": {"system": "OXA neuropathic pain model rats", "assay": "Mechanical withdrawal threshold in Oxaliplatin chemotherapy-induced neuropathic pain model", "format": "in vivo, SD rats", "settings": "for mechanical withdrawal threshold vs Pregabalin: 2nd-4th hour after administration", "protocol": "Male SD rats (200-250 g) were injected 4 mg/kg of Oxaliplatin by intraperitoneal on day 1, 2, 8, 9, 15, 16, 22 and 23 to establish chemotherapy-induced neuropathic pain model. On day 24, the mechanical withdrawal threshold of rats in group normal and model were measured with Electric Von Frey (IITC-2391) to choose rats with stable mechanical withdrawal threshold, which were randomly divided into 5 groups: 1) model; 2) 30 mg/kg Pregabalin; 3) 9 mg/kg Compound II-4; 4) 3 mg/kg Compound II-4; and 5) 1 mg/kg Compound II-4. Group 2 -5 were given corresponding medicines orally with the dose of 1 ml/100g, while the Group model and normal were given saline of the same volume with the same method. Mechanical withdrawal threshold was measured before administration and 1, 2, 4, 6h after single administration, and the results were shown in FIG. 5."}, "[7]": {"settings": "1 mg/kg PO single dose, since 1 hour after administration"}, "[8]": {"settings": "1 mg/kg PO, comparator 50 mg/kg Gabapentin"}}}
{"smiles": "Cn1c(-c2ccc(OCCCN3CCCCC3)cc2)cc(=O)c2ccccc21", "note": "[Compound I-4, 1-Methyl-2-(4-(3-(Piperidin-1-Yl)Propoxy)Phenyl)Quinolin-4(1H)-One]", "values": [{"measurement": "heat pain threshold vs model group", "setting": "PSL model rats; [7]", "result": "significantly higher than model group"}, {"measurement": "mechanical withdrawal threshold vs model group", "setting": "CCI model rats [1]; 3 mg/kg PO, 1st-4th hour after administration", "result": "significantly higher (P<0.01) than model group"}, {"measurement": "mechanical withdrawal threshold, relation to dose", "setting": "CCI model rats [1]; single dose 1, 3 or 9 mg/kg PO", "result": "dose-dependent increase"}, {"measurement": "effective time", "setting": "CCI model rats [1]; single dose PO, compared with 50 mg/kg Gabapentin", "result": "longer than Gabapentin"}]}
{"smiles": "CCn1c(-c2ccc(OCCCN3CCCCC3)cc2)cc(=O)c2ccccc21", "note": "[Compound I-6, 1-Ethyl-2-(4-(3-(Piperidin-1-Yl)Propoxy)Phenyl)Quinolin-4(1H)-One]", "values": [{"measurement": "heat pain threshold vs model group", "setting": "PSL model rats; 0.3 mg/kg PO, 2nd hour after administration", "result": "significantly higher (P<0.01) than model group"}, {"measurement": "heat pain threshold vs model group", "setting": "PSL model rats; [7]", "result": "significantly higher than model group"}, {"measurement": "heat pain threshold vs Pregabalin group", "setting": "PSL model rats; 1.0 mg/kg PO", "result": "raised to be compared to 30 mg/kg Pregabalin group"}, {"measurement": "heat pain threshold vs sham group", "setting": "PSL model rats; 3.0 mg/kg PO, 1st-2nd hour after administration", "result": "further improved to the level equal to sham group"}, {"measurement": "heat pain threshold vs Pregabalin group", "setting": "PSL model rats; 3.0 mg/kg PO, 1st-2nd hour", "result": "better than Pregabalin group"}, {"measurement": "heat pain threshold, relation to dose", "setting": "PSL model rats; single dose 0.3, 1 or 3 mg/kg PO", "result": "increased in a dose-dependent manner"}, {"measurement": "signs after intragastric administration", "setting": "ICR mice; 64 mg/kg", "result": "no abnormal signs"}, {"measurement": "signs after intragastric administration", "setting": "ICR mice; 256 mg/kg", "result": "one of the mice given a dose of 256 mg/kg suffered convulsions but recovered on the second day"}, {"measurement": "signs after intragastric administration", "setting": "ICR mice; 1024 mg/kg", "result": "one of the mice given a dose of 1024 mg/kg suffered convulsions and finally died on the second day"}, {"measurement": "LD50", "setting": "[2]", "result": "> 1020", "unit": "mg/kg"}, {"measurement": "time at which peak plasma concentrations occur", "setting": "[3]; P.O 10.0 mg/kg", "result": "2.00 ± 1.73", "unit": "h"}, {"measurement": "half-life", "setting": "[3]; Sprague-Dawley (SD), rat, plasma, iv, 1 mg/kg, I.V 1.00mg/kg", "result": "6 ± 1.43", "unit": "h"}, {"measurement": "bioavailability", "setting": "[3]; Sprague-Dawley (SD), rat, plasma, po, 10 mg/kg, read-out: absolute bioavailability", "result": 51.3, "unit": "%"}, {"measurement": "half-life", "setting": "[3]; Sprague-Dawley (SD), rat, plasma, po, P.O 10.0 mg/kg", "result": "3.79 ± 0.12", "unit": "h"}, {"measurement": "effective time vs Gabapentin", "setting": "[4]; [8]", "result": "longer effective time"}, {"measurement": "heat pain threshold vs Gabapentin", "setting": "[4]; [8]", "result": "significantly higher heat pain threshold (P<0.01)"}, {"measurement": "heat pain threshold of diabetic neuropathic pain model", "setting": "[4]", "result": "could improve the heat pain threshold"}]}
{"smiles": "COc1c(-c2ccc(OCCCN3CCCCC3)cc2)n(C)c2ccccc2c1=O", "note": "[Compound I-10, 3-Methoxy-1-Methyl-2-(4-(3-(Piperidin-1-Yl)Propoxy)Phenyl)Quinolin-4(1H)-One]", "values": [{"measurement": "mechanical withdrawal threshold vs model group", "setting": "CCI model rats [5]; 1 mg/kg PO for 5 days, 1st-5th day after administration", "result": "significantly higher (P<0.01) than model group"}, {"measurement": "dose-dependency and stability of efficacy", "setting": "CCI model rats [5]; 5 days PO, compared with 50 mg/kg Gabapentin", "result": "better dose-dependency and stability of efficacy compared to Gabapentin"}, {"measurement": "mechanical withdrawal threshold, relation to dose", "setting": "CCI model rats [5]; repeated administration 5 days, 0.3, 1 or 3 mg/kg PO", "result": "increased in a dose-dependent manner"}]}
{"smiles": "COc1c(-c2ccc(OCCCN3CCCCC3)cc2)oc2ccccc2c1=O", "note": "[Compound II-4, 3-Methoxy-2-(4-(3-(Piperidin-1-Yl)Propoxy)Phenyl)-4H-Chromen-4-One]", "values": [{"measurement": "heat pain threshold vs model group", "setting": "PSL model rats; [7]", "result": "significantly higher than model group"}, {"measurement": "mechanical withdrawal threshold vs model group", "setting": "[6]; 1 mg/kg PO, 1st-2nd hour after administration", "result": "significantly higher (P<0.01) than model group"}, {"measurement": "mechanical withdrawal threshold vs Pregabalin", "setting": "[6]; 3 mg/kg PO", "result": "significantly higher (P<0.05) than 30 mg/kg Pregabalin"}, {"measurement": "mechanical withdrawal threshold vs Pregabalin", "setting": "[6]; 9 mg/kg PO", "result": "significantly higher (P<0.05) than 30 mg/kg Pregabalin"}, {"measurement": "mechanical withdrawal threshold, relation to dose", "setting": "[6]; single dose 1, 3 or 9 mg/kg PO", "result": "dosage-dependent increase"}, {"measurement": "improvement of mechanical withdrawal threshold compared with Pregabalin", "setting": "[6]; single dose PO", "result": "more effectively and longer"}]}
{"smiles": "NCC1(CC(=O)O)CCCCC1", "note": "[Gabapentin, reference compound]", "values": [{"measurement": "mechanical withdrawal threshold vs model group", "setting": "CCI model rats [5]; 50 mg/kg PO for 5 days", "result": "only kept the significant difference during 2nd-5th day"}, {"measurement": "mechanical withdrawal threshold vs model group", "setting": "CCI model rats [1]; 50 mg/kg PO single dose", "result": "only remained significantly higher than model group during 1st-2nd hour"}, {"measurement": "heat pain threshold of diabetic neuropathic pain model", "setting": "[4]", "result": "could improve the heat pain threshold"}]}
{"smiles": "CC(C)C[C@H](CN)CC(=O)O", "note": "[Pregabalin, reference compound]", "values": [{"measurement": "onset of action on mechanical withdrawal threshold", "setting": "[6]; 30 mg/kg PO", "result": "rapid action"}]}
